The source of these data is ChEMBL document CHEMBL3039007, “Structure-based identification of OATP1B1/3 inhibitors” (Mol Pharmacol, 2013).

In data set [1] the target is T1, Solute carrier organic anion transporter family member 1B1 (Homo sapiens, UniProt Q9Y6L6).
T1 sequence (Q9Y6L6 whole entry): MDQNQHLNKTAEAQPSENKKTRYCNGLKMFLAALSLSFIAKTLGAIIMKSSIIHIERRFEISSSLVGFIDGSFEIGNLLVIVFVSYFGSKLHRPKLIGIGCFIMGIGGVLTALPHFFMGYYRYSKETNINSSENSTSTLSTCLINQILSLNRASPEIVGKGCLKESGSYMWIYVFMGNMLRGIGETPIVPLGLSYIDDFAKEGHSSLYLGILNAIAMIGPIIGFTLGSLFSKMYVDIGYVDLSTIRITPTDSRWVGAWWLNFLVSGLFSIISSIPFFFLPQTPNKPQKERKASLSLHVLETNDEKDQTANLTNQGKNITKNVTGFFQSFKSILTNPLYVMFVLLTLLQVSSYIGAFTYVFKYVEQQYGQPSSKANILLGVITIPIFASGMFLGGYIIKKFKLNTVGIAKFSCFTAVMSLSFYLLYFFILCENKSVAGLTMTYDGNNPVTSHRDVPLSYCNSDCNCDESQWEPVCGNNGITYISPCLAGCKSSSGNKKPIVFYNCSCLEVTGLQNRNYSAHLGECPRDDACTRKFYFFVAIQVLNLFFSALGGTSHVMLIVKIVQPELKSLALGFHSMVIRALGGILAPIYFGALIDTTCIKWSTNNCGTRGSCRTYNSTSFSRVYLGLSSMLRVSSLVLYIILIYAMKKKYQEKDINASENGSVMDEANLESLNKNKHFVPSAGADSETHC
Particulars: chinese hamster, cho, 10 µM.

Data set [2] has as its target T2, Solute carrier organic anion transporter family member 1B3 (Homo sapiens, UniProt Q9NPD5).
T2 sequence (Q9NPD5 whole entry): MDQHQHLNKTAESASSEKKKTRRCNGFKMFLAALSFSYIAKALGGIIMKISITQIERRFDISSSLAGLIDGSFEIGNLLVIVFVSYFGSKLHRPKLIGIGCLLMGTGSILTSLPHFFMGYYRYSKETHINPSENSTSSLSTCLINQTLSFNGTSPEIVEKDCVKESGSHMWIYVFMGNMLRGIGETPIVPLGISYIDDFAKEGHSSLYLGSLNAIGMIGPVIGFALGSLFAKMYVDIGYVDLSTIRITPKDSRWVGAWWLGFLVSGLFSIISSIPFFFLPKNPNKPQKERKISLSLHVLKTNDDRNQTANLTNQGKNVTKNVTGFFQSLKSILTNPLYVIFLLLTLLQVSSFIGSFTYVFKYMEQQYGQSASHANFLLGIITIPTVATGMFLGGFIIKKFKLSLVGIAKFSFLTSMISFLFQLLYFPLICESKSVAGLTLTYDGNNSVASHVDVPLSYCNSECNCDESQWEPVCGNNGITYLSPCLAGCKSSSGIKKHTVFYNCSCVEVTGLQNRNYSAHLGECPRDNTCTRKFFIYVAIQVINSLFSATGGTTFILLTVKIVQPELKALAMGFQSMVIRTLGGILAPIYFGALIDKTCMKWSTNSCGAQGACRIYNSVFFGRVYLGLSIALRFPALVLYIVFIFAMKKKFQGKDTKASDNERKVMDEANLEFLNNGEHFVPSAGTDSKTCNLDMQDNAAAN
Particulars: chinese hamster, cho, 10 µM.

As to `CC[C@@]1(O)C[C@H](O[C@H]2C[C@H](N(C)C)[C@H](O)[C@H](C)O2)c2c(cc3c(c2O)C(=O)c2c(O)cccc2C3=O)[C@H]1C(=O)OC.Cl` [AKLAVINE HYDROCHLORIDE], the residual activity in data set [1] is recorded as 70.22%; in data set [2], 83.91%.

For the compound `NC(=O)c1ccc([N+](=O)[O-])cc1Cl` [AKLOMIDE], the residual activity was 115.5% in data set [1] and 100.2% in data set [2].

On to `CCc1cccc(CC)c1N(COC)C(=O)CCl` [ALACHLOR], for which the residual activity in data set [1] is listed as 103.5%; in data set [2], 105%.

For `CC(N)C(=O)OC(C)(C)Cc1ccc(Cl)cc1` (centres undefined) [ALAPROCLATE], the residual activity was 84.52% in data set [1] and 98.54% in data set [2].

`CCCSc1ccc2nc(NC(=O)OC)[nH]c2c1` [ALBENDAZOLE]: the values for the residual activity in data set [1] and in data set [2] were 102.7% and 95.9%, respectively.

As to `NC(=O)NCC(N)C(=O)O` (centres undefined) [ALBIZZIINE], the results for the residual activity in data set [1] and in data set [2] were 118.1% and 110.8%, respectively.

As for `CNC(=O)O/N=C/C(C)(C)SC` [ALDICARB], the residual activity is listed as 120.5% in data set [1] and 80.05% in data set [2].

On to `ClC1=C(Cl)C2(Cl)C3C4C=CC(C4)C3C1(Cl)C2(Cl)Cl` (centres undefined) [ALDRIN], for which the residual activity in data set [1] stood at 121.9%; in data set [2], 124.9%.

`NC(=O)NC1NC(=O)NC1=O` (centres undefined) [ALLANTOIN]: the residual activity in data set [1] stood at 67.4%; in data set [2], 86.17%.

For the compound `Oc1ncnc2[nH]ncc12` [ALLOPURINOL], the residual activity is reported as 68.8% in data set [1] and 84.36% in data set [2].

With `O=C1NC(=O)C(=O)C(=O)N1` [ALLOXAN], the residual activity in data set [1] worked out at 118.2%; in data set [2], 108.5%.

Regarding `CN(C)CCc1c[nH]c2ccc(CS(=O)(=O)N3CCCC3)cc12` [ALMOTRIPTAN], the values for the residual activity in data set [1] and in data set [2] were 95.85% and 94.33%, respectively.

With `O=C1c2c(O)cccc2C([C@@H]2O[C@H](CO)[C@@H](O)[C@H](O)[C@H]2O)c2cc(CO)cc(O)c21` (some centres undefined) [ALOIN], the figures for the residual activity in data set [1] and in data set [2] were 48.46% and 66.8%, respectively.

For the compound `C/C1=C\CC/C(C)=C/CC(C)(C)/C=C/C1` [ALPHA-HUMULONE], the residual activity in data set [1] came to 112.4%; in data set [2] it was 109.1%.

In the case of `C=CCc1ccccc1OCC(O)CNC(C)C` (centres undefined) [ALPRENOLOL], the residual activity in data set [1] came out at 89.01%; in data set [2] it was 120.6%.

In the case of `C=CCSCC1Nc2cc(Cl)c(S(N)(=O)=O)cc2S(=O)(=O)N1` (centres undefined) [ALTHIAZIDE], the residual activity in data set [1] turned out to be 107.1%; in data set [2], 95.11%.

On to `CCN(CCCc1ccccc1)CCCc1ccccc1.O=C(O)CC(O)(CC(=O)O)C(=O)O` [ALVERINE CITRATE], for which the residual activity in data set [1] came out at 48.34%; in data set [2], 74.4%.

`COc1c2c(cc3c1OCO3)[C@]13C=C[C@H](OC)C[C@H]1N(C2)C[C@@H]3O` [AMBELLINE]: the residual activity in data set [1] came out at 91.95%; in data set [2], 88.47%.

On to `CC(=O)OCC(=O)[C@@]12OC3(CCCC3)O[C@@H]1C[C@H]1[C@@H]3CCC4=CC(=O)C=C[C@]4(C)[C@@]3(F)[C@@H](O)C[C@@]12C` [AMCINONIDE], for which the residual activity in data set [1] is 35.76%; in data set [2], 56.58%.

For the compound `Cl.N=C(N)NC(=O)c1nc(Cl)c(N)nc1N.O.O` [AMILORIDE HYDROCHLORIDE], the values for the residual activity in data set [1] and in data set [2] were 51.46% and 65.11%, respectively.

As for `Nc1c2ccccc2nc2ccccc12` [AMINACRINE], the residual activity was 54.19% in data set [1] and 80.82% in data set [2].

On to `Nc1ccc(C(=O)O)cc1` [AMINOBENZOIC ACID], for which the values for the residual activity in data set [1] and in data set [2] were 85.02% and 88.18%, respectively.

As for `CN1[C@@H]2CC[C@H]1C[C@@H](OC(c1ccccc1)c1ccccc1N)C2` (some centres undefined) [AMINOBENZTROPINE], the residual activity in data set [1] worked out at 75.33%; in data set [2], 77.23%.

Take `CCC1(c2ccc(N)cc2)CCC(=O)NC1=O` (centres undefined) [AMINOGLUTETHIMIDE]: the results for the residual activity in data set [1] and in data set [2] were 52.33% and 77%, respectively.

In the case of `Nc1ccc(C(=O)NCC(=O)O)cc1` [AMINOHIPPURIC ACID], the figures for the residual activity in data set [1] and in data set [2] were 82.43% and 94.72%, respectively.

As to `Cl.NCC(=O)CCC(=O)O` [AMINOLEVULINIC ACID HYDROCHLORIDE], the residual activity in data set [1] is given as 84.34%; in data set [2], 89.23%.

Regarding `Nc1nc(N)c2nc(CNc3ccc(C(=O)N[C@@H](CCC(=O)O)C(=O)O)cc3)cnc2n1` [AMINOPTERIN], the residual activity in data set [1] was 89.56%; in data set [2] it was 124.5%.

In the case of `Nc1ccc(C(=O)[O-])c(O)c1.O.O.[Na+]` [AMINOSALICYLATE SODIUM], the values for the residual activity in data set [1] and in data set [2] were 75.75% and 88.86%, respectively.

`Nc1nccs1` [AMINOTHIAZOLE]: the residual activity in data set [1] worked out at 92.13%; in data set [2], 76.59%.

As to `CN(C)CCCO[C@@H]1[C@H]2OC(C)(C)O[C@H]2O[C@@H]1[C@H](O)CO` [AMIPRILOSE], the residual activity in data set [1] worked out at 91.07%; in data set [2], 95.1%.

On to `Cc1ccc(/N=C/N(C)/C=N/c2ccc(C)cc2C)c(C)c1` [AMITRAZ], for which the figures for the residual activity in data set [1] and in data set [2] were 108.2% and 87.86%, respectively.

As to `CN(C)CCC=C1c2ccccc2CCc2ccccc21.Cl` [AMITRIPTYLINE HYDROCHLORIDE], the results for the residual activity in data set [1] and in data set [2] were 53.22% and 80.45%, respectively.

Regarding `Clc1ccc2c(c1)C(N1CCNCC1)=Nc1ccccc1O2` [AMOXAPINE], the residual activity in data set [1] is given as 115.8%; in data set [2] it was 101.5%.

With `C[C@@H]1[C@H](O)[C@@H](C)/C=C/C=C/C=C/C=C/C=C/C=C/C=C/[C@H](O[C@@H]2O[C@H](C)[C@@H](O)[C@H](N)[C@@H]2O)C[C@@H]2O[C@](O)(C[C@@H](O)C[C@@H](O)[C@H](O)CC[C@@H](O)C[C@@H](O)CC(=O)O[C@H]1C)C[C@H](O)[C@H]2C(=O)O` [AMPHOTERICIN B], the values for the residual activity in data set [1] and in data set [2] were 89.01% and 99.53%, respectively.

Turning to `CC1(C)S[C@@H]2[C@H](NC(=O)[C@H](N)c3ccccc3)C(=O)N2[C@H]1C(=O)[O-].[Na+]` [AMPICILLIN SODIUM], the residual activity in data set [1] amounted to 76.76%; in data set [2], 88.9%.

On to `CCCc1ncc(C[n+]2ccccc2C)c(N)n1` [AMPROLIUM ION], for which the figures for the residual activity in data set [1] and in data set [2] were 67.38% and 78.02%, respectively.

For `N#C[C@H](O[C@@H]1O[C@H](CO[C@@H]2O[C@H](CO)[C@@H](O)[C@H](O)[C@H]2O)[C@@H](O)[C@H](O)[C@H]1O)c1ccccc1` [AMYGDALIN], the values for the residual activity in data set [1] and in data set [2] were 118.1% and 103.6%, respectively.

Turning to `CN1CCCCC1c1ccc(-c2cccnc2)nc1.Cl` (centres undefined) [ANABASAMINE HYDROCHLORIDE], the residual activity in data set [1] stood at 100%; in data set [2], 108.2%.

For `Cl.c1cncc([C@@H]2CCCCN2)c1` [ANABASINE HYDROCHLORIDE], the residual activity in data set [1] is reported as 83.96%; in data set [2] it was 91.54%.

Turning to `Cl.N=c1ccn2c(n1)O[C@H]1[C@H](O)[C@@H](CO)O[C@H]12` [ANCITABINE HYDROCHLORIDE], the residual activity is 68.78% in data set [1] and 66.03% in data set [2].

Regarding `C=C1[C@@H]([C@@]2(C)C=CC(=O)C(C)(C)[C@@H]2CC(=O)OC)CC[C@@]2(C)[C@H](c3ccoc3)OC(=O)[C@H]3O[C@]132` [ANDIROBIN], the residual activity in data set [1] came out at 103.8%; in data set [2], 98.71%.

Turning to `C=C1CC[C@@H]2[C@](C)(CO)[C@H](O)CC[C@@]2(C)[C@@H]1C/C=C1/C(=O)OC[C@H]1O` [ANDROGRAPHOLIDE], the residual activity in data set [1] was 80.16%; in data set [2], 84.72%.

As a reminder, the residual activity is the signal under treatment as a percentage of the control signal.
